Among the data in ChEMBL document CHEMBL5055668 (J Med Chem, 2021) are Activity, inhibition and Tm values, retold here.

The source made the active and inactive calls. The rule behind the calls is not given here.

Data set [1] concerns MC-38. Briefly: Antitumor activity against mouse MC38 cells allografted in C57BL6 mouse assessed as decrease in Il10 mRNA expression at 10 to 20 mg/kg, po administered daily for 2 weeks by qPCR analysis. The note with it: dose 10-20 mg/kg. It is filed as functional, organism-based.
Data set [2] addresses T1, Macrophage colony-stimulating factor 1 receptor (Mus musculus) (UniProt P09581).
T1 sequence (whole entry): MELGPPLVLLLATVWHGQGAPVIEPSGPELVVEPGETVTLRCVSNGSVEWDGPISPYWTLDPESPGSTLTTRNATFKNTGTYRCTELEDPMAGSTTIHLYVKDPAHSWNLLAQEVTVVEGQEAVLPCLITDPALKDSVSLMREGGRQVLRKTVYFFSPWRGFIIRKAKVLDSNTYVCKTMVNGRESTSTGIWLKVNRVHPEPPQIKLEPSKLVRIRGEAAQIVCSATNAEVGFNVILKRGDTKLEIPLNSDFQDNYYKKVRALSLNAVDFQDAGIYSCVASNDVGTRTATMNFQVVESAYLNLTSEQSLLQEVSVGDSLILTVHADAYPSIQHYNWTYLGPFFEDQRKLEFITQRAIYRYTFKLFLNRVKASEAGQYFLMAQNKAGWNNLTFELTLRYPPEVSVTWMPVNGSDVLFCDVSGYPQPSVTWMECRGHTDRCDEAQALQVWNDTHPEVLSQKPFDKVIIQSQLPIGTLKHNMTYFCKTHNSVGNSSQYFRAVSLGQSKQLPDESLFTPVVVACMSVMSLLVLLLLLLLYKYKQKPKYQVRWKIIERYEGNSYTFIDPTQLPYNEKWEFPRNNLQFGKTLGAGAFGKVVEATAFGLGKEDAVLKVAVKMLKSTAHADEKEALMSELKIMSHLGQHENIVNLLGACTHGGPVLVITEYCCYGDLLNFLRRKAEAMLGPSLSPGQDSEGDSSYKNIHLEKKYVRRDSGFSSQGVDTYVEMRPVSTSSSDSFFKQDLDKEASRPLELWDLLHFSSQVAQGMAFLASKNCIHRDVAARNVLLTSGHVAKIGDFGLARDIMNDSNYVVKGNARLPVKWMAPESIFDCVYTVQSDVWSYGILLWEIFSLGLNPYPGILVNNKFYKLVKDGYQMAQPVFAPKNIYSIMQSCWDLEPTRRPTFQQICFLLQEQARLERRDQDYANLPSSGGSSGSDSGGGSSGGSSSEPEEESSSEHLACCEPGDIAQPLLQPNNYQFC
Briefly: Inhibition of CSF-1R signaling pathway in C57BL/6 mouse BMDM cells assessed as reduction in M-CSF induced CSF-1R phosphorylation at 100 nM preincubated for 12 hrs followed by M-CSF stimulation for 30 mins by Western blot analysis. It is filed as cell-based.

The target in data set [3] is T1, Macrophage colony-stimulating factor 1 receptor (Mus musculus). Put plainly: Binding affinity to CSF-1R in C57BL/6 mouse BMDM cells assessed as increase in melting temperature at 100 nM after 1 hr by CETSA. It is filed as cell-based.
Data set [4] deals with MC-38. Put plainly: Antitumor activity against mouse MC38 cells allografted in macrophage depleted C57BL6 mouse at 20 mg/kg, po administered daily for 2 weeks. Format: functional, organism-based.
Data set [5] relates to MC-38. Briefly: Antitumor activity against mouse MC38 cells allografted in C57BL6 mouse assessed as increase in Il6 mRNA expression at 10 to 20 mg/kg, po administered daily for 2 weeks by qPCR analysis. It is filed as functional, organism-based. Conditions: dose 10-20 mg/kg.
For data set [6], the system named is MC-38. Briefly: Antitumor activity against mouse MC38 cells allografted in C57BL6 mouse assessed as increase in Il12 mRNA expression at 10 to 20 mg/kg, po administered daily for 2 weeks by qPCR analysis. It is filed as functional, organism-based. Conditions: dose 10-20 mg/kg. Background: In qPCR the cycle at which signal appears reflects the starting amount.

Data set [7] has as its system HCT-116. Briefly: Antiproliferative activity against human HCT-116 cells assessed as reduction in cell viability at 10 to 100 nM incubated for 24 hrs by CCK-8 assay. Format: functional, cell-based. The note with it: dose 10-100 nM. For orientation: Formazan colour is commonly taken as a measure of viable cells.
For data set [8], the system named is MC-38. Put plainly: Antiproliferative activity against mouse MC38 cells cultured with culture medium of M2-macrophages assessed as reduction in cell viability at 10 to 100 nM incubated for 24 hrs by CCK-8 assay. Conditions: dose 10-100 nM. Format: functional, cell-based.
Data set [9] has as its system HCT-116. Put plainly: Antitumor activity against human HCT-116 cells xenografted in nude BALB/c mouse assessed as reduction in tumor weight at 5 to 20 mg/kg, po administered daily for 2 weeks. Format: functional, organism-based. Conditions: dose 5-20 mg/kg. In general terms: A xenograft is tissue or cells of one species grown in another, often human tumour cells in immunodeficient mice.

Data set [10] relates to BMDM. Put plainly: Induction of conversion of M2-macrophages to the M1 phenotype in CM of MC38 cells treated C57BL/6 mouse BMDM cells assessed as down regulation of Retnla mRNA expression at 30 to 100 nM preincubated with culture medium of MC38 cells for 24 hrs followed by compound addition and measured after 24 hrs by qPCR analysis. Format: functional, cell-based. Conditions: dose 30-100 nM.

Data set [11] relates to MC-38. Put plainly: Antitumor activity against mouse MC38 cells allografted in C57BL6 mouse assessed as reduction in AKT phosphorylation in tumor tissue at 5 to 10 mg/kg, po administered daily for 2 weeks by Western blot analysis. Format: functional, organism-based. Conditions: dose 5-10 mg/kg.
In data set [12] the test system is BMDM. Put plainly: Induction of conversion of M2-macrophages to the M1 phenotype in CM of MC38 cells treated C57BL/6 mouse BMDM cells assessed as down regulation of Vegf mRNA expression at 30 to 100 nM preincubated with culture medium of MC38 cells for 24 hrs followed by compound addition and measured after 24 hrs by qPCR analysis. It is filed as functional, cell-based. The note with it: dose 30-100 nM.

Data set [13] deals with MC-38. Briefly: Antitumor activity against mouse MC38 cells allografted in C57BL6 mouse assessed as decrease in Vegf mRNA expression at 10 to 20 mg/kg, po administered daily for 2 weeks by qPCR analysis. The note with it: dose 10-20 mg/kg. Format: functional, organism-based.
A further data set relates to THP-1. Put plainly: Induction of conversion of M2-macrophages to the M1 phenotype in CM of HCT116 cells treated […]-differentiated human THP-1 cells assessed as down regulation of Arg1 mRNA expression at 30 to 100 nM incubated for 24 hrs by qPCR analysis. The note with it: dose 30-100 nM. Format: functional, cell-based.
The test system of data set [14] is Mus musculus. Briefly: Toxicity in C57BL/6 mouse allografted with mouse MC38 cells assessed as spleen damage at 5 to 20 mg/kg, po administered every day for 2 weeks by histopathological analysis. Format: organism-based, MC-38. The note with it: in vivo, 336 h, dose 5-20 mg/kg.
The subject of data set [15] is BMDM. Put plainly: Induction of conversion of M2-macrophages to the M1 phenotype in CM of MC38 cells treated C57BL/6 mouse BMDM cells assessed as upregulation of Nos2 mRNA expression at 30 to 100 nM preincubated with culture medium of MC38 cells for 24 hrs followed by compound addition and measured after 24 hrs by qPCR analysis. It is filed as functional, cell-based. Conditions: dose 30-100 nM.

In data set [16] the test system is BMDM. Put plainly: Induction of conversion of M2-macrophages to the M1 phenotype in CM of MC38 cells treated C57BL/6 mouse BMDM cells assessed as upregulation of […] mRNA expression at 30 to 100 nM preincubated with culture medium of MC38 cells for 24 hrs followed by compound addition and measured after 24 hrs by qPCR analysis. Format: functional, cell-based. Conditions: dose 30-100 nM.

In data set [17] the test system is Mus musculus. Put plainly: Toxicity in C57BL/6 mouse allografted with mouse MC38 cells assessed as weight loss at 5 to 20 mg/kg, po administered every day for 2 weeks. Format: organism-based, MC-38. The note with it: in vivo, 336 h, dose 5-20 mg/kg.
The target of data set [18] is T1, Macrophage colony-stimulating factor 1 receptor (Mus musculus). Briefly: Inhibition of CSF-1R signaling pathway in C57BL/6 mouse BMDM cells assessed as reduction in M-CSF induced CSF-1R phosphorylation preincubated for 12 hrs followed by M-CSF stimulation for 30 mins by Western blot analysis. Format: cell-based. Conditions: dose 100.0 nM.

In the case of `Cc1[nH]c(/C=C2\C(=O)Nc3cc(NC(=O)Nc4cc(C(C)(C)C)on4)ccc32)c(C)c1NC(=O)CN1CCN(C)CC1`, the result in the data set with MC-38 [1], in the data set with MC-38 [5], in the data set with MC-38 [6], in the data set on MC-38 [8], in the data set with BMDM [10] and in the data set on MC-38 [11] was Active. Moreover, the result in the data set on BMDM [12], in the data set with MC-38 [13], with THP-1, in the data set with BMDM [15] and in the data set on BMDM [16] was Active. In addition, the inhibition entry in data set [2] is “Active”. Moreover, in data set [3], the Tm worked out at 68 °C. The outcome in the data set on MC-38 [4], in the data set on HCT-116 [7] and in the data set with HCT-116 [9] was inactive. The Activity result in the data set with Mus musculus [14] and in the data set on Mus musculus [17] was “Non-Toxic” each time. Moreover, the inhibition result in data set [18] was “Dose-dependent effect”.
